The text below walks through data of ChEMBL document CHEMBL1145410 (Bioorg Med Chem Lett, 2007).

As usually defined, the IC50 is the concentration that inhibits the measured activity by half. Broadly, the bioavailability is dose-corrected exposure relative to a reference, in per cent. Higher therefore signals much systemic uptake. As usually defined, the half-life is the time needed for the level to fall by half in the phase considered.

The target of one data set is Dipeptidyl peptidase 8 (Homo sapiens, UniProt Q6V1X1). Kind of data set: Inhibition of DPP8.
Dipeptidyl peptidase 8, sequence (Q6V1X1 whole entry): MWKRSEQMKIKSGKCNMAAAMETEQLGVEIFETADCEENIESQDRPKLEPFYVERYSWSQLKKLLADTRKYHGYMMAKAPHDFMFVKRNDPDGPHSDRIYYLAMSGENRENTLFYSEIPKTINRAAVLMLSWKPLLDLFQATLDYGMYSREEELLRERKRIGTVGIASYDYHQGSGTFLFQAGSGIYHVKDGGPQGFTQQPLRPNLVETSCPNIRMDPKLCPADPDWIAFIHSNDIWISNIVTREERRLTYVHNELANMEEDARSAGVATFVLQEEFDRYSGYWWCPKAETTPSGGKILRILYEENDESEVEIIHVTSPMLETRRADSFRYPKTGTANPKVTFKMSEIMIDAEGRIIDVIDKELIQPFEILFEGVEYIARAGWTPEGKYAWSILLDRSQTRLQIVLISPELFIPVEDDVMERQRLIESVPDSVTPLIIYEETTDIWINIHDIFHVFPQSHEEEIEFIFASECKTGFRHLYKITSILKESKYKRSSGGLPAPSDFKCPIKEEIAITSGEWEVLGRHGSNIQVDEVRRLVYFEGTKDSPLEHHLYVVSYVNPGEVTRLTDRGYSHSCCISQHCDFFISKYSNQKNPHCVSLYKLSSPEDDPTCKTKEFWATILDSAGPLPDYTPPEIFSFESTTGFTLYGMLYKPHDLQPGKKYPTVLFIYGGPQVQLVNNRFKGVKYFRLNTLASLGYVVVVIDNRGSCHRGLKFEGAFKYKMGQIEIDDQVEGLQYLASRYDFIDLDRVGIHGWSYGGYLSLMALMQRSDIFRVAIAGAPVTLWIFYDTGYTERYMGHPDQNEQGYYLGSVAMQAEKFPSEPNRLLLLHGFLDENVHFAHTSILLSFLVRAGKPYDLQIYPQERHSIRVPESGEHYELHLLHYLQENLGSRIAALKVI
The next data set has as its target Dipeptidyl peptidase 2 (Homo sapiens, UniProt Q9UHL4). Description: Inhibition of QPP.
The target in the next data set is Dipeptidyl peptidase 9 (Homo sapiens, UniProt Q86TI2). Kind of data set: Inhibition of DPP9.
Dipeptidyl peptidase 9, sequence (Q86TI2 whole entry): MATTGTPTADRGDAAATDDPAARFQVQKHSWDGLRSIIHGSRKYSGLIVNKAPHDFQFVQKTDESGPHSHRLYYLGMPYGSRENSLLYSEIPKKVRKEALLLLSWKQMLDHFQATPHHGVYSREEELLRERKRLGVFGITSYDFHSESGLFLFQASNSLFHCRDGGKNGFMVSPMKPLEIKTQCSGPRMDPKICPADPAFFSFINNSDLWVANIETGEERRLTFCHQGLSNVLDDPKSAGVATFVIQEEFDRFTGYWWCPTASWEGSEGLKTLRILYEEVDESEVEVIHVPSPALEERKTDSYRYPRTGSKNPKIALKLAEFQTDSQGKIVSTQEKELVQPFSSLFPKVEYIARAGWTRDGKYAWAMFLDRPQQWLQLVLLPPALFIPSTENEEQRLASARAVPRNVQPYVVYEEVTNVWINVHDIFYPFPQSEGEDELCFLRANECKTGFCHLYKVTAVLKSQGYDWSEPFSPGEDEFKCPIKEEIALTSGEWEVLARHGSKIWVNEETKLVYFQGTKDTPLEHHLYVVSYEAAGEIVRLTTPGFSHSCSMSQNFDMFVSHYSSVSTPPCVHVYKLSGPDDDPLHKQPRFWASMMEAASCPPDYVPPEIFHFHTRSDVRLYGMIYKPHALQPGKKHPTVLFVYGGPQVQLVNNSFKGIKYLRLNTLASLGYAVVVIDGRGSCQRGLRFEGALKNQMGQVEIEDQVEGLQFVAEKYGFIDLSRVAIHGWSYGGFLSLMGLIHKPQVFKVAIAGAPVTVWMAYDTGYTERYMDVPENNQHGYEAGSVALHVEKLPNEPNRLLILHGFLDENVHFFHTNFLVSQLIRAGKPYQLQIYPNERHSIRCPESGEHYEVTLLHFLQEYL
The target of another data set is Dipeptidyl peptidase 4 (Homo sapiens, UniProt P27487). Kind of data set: Inhibition of DPP4.
Dipeptidyl peptidase 4, sequence (P27487 whole entry): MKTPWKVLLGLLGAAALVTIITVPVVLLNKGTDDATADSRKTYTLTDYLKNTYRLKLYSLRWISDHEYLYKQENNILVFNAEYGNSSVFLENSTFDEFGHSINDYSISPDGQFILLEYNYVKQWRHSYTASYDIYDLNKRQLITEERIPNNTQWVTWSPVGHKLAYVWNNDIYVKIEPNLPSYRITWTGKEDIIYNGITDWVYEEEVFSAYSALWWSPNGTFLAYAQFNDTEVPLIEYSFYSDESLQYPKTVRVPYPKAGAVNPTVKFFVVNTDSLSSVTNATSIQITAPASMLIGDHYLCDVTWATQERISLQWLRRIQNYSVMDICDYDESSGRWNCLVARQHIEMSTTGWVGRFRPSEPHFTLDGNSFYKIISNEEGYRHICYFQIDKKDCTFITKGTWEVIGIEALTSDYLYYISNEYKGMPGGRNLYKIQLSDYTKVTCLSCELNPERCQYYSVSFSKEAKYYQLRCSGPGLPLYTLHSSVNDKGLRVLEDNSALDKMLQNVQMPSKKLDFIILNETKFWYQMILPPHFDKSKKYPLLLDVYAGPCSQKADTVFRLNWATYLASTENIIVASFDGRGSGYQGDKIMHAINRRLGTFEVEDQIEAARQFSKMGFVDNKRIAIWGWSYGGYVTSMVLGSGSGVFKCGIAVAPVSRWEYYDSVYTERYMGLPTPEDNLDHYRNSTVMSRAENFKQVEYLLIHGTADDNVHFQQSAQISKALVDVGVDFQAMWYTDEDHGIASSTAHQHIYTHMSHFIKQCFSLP
The nature of data set [1]: Inhibition of rabbit calcium channel L type. Further details: species or system Oryctolagus cuniculus.
Data set [2] can be described thus: Bioavailability iin rat at 1 mg/kg iv or 2 mg/kg po. The data set is classed as ADME, organism-based. The note with it: in vivo.
The nature of data set [3]: Plasma clearance in rat at 1 mg/kg iv or 2 mg/kg po. It counts as ADME, organism-based.
Data set [4] can be described thus: Half life in rat at 1 mg/kg iv or 2 mg/kg po. It counts as ADME, organism-based. To be noted: in vivo.
The next data set concerns the target Cytochrome P450 2D6 (Homo sapiens, UniProt P10635). Kind of data set: Inhibition of Cyp2D6. It counts as ADME.
For data set [5], the target named is Voltage-gated inwardly rectifying potassium channel KCNH2 (Homo sapiens, UniProt Q12809). Kind of data set: Inhibition of human ERG potassium channel.
Voltage-gated inwardly rectifying potassium channel KCNH2, sequence (Q12809 whole entry): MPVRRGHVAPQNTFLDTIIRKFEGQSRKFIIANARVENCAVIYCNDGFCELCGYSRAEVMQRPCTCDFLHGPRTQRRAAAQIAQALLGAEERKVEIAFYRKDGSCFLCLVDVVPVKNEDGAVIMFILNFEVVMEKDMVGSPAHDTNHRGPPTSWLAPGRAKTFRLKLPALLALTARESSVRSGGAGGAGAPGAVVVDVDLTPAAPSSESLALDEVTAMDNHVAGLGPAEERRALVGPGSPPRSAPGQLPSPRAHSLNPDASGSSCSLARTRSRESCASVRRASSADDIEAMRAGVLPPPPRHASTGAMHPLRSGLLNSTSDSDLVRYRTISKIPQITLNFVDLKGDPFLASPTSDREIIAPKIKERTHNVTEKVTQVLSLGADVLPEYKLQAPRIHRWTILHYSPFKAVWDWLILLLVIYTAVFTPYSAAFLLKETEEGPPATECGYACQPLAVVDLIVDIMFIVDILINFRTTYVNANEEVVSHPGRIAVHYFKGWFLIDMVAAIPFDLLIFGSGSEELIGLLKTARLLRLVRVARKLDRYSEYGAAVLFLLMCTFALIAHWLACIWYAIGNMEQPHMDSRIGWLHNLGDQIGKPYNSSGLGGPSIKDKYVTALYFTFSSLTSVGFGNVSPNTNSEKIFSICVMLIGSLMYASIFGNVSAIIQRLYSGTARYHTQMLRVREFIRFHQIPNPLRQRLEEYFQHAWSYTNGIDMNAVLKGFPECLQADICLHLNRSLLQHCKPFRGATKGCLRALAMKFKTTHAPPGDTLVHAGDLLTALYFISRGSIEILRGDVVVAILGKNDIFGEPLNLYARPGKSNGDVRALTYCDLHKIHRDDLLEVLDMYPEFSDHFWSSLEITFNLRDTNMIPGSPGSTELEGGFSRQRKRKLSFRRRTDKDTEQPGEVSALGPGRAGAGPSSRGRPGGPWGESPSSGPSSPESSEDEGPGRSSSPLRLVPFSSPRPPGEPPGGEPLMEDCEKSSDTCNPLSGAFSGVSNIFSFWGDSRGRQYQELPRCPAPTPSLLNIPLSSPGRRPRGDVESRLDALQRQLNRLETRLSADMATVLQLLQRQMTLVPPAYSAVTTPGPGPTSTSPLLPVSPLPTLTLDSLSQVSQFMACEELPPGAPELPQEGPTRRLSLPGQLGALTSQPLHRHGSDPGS

Cytochrome P450 2D6, sequence (P10635 whole entry): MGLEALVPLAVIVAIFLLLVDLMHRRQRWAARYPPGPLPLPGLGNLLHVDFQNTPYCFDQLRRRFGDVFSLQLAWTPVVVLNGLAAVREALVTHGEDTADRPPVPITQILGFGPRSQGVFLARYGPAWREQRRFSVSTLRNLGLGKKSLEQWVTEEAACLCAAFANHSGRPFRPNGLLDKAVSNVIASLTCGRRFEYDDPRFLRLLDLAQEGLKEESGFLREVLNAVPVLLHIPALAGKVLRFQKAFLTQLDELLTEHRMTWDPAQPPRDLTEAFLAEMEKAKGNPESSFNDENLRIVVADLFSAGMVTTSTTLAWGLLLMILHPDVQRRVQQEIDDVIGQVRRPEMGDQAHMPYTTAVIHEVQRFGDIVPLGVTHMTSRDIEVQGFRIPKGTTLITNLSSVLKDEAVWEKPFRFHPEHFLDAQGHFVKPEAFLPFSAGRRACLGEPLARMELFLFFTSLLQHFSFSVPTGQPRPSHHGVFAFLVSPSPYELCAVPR

`N[C@H]1CN(c2ccccn2)CC[C@@H]1c1cc(F)c(F)cc1F`: the IC50 was 34 µM against Dipeptidyl peptidase 8, 50 µM against Dipeptidyl peptidase 2, 38 µM against Dipeptidyl peptidase 9 and 0.058 µM at Dipeptidyl peptidase 4.

Take `N[C@H]1CN(c2ccncn2)CC[C@@H]1c1cc(F)c(F)cc1F`: the concentration for half-maximal inhibition (IC50) on Dipeptidyl peptidase 8 is 60 µM; on Dipeptidyl peptidase 2 it was > 100 µM; on Dipeptidyl peptidase 9, 67 µM; in data set [1], 26.9 µM; at Dipeptidyl peptidase 4 it was 0.037 µM.

Take `N[C@H]1CN(c2ccc(C(F)(F)F)cn2)CC[C@@H]1c1cc(F)c(F)cc1F`: the IC50 against Dipeptidyl peptidase 2 is 28 µM.

Regarding `Cc1nc2ccc(N3CC[C@H](c4cc(F)c(F)cc4F)[C@@H](N)C3)nc2c(=O)[nH]1`, the IC50 was 80 µM on Dipeptidyl peptidase 8, 46 µM on Dipeptidyl peptidase 2, > 100 µM against Dipeptidyl peptidase 9 and 0.007 µM against Dipeptidyl peptidase 4.

In [2], `N[C@H]1CN(c2ccn3cnnc3n2)CC[C@@H]1c1cc(F)c(F)cc1F.O=C(O)C(F)(F)F` gave a bioavailability of 19%. The IC50 against Dipeptidyl peptidase 8 was 30 µM; on Dipeptidyl peptidase 2 it was > 100 µM; at Dipeptidyl peptidase 9 it was 43 µM; on Cytochrome P450 2D6, 20.6 µM; on Dipeptidyl peptidase 4 it was 0.026 µM. In data set [3], this molecule came in with a clearance of 54 mL/min/kg. The half-life in data set [4] was 1.5 h.

Turning to `N[C@H]1CN(c2cnc3cccnc3n2)CC[C@@H]1c1cc(F)c(F)cc1F`, the 50% inhibitory concentration (IC50) against Dipeptidyl peptidase 8 was 66 µM; against Dipeptidyl peptidase 2, 58 µM; against Dipeptidyl peptidase 9, > 100 µM; against Dipeptidyl peptidase 4, 0.13 µM.

With `N[C@H]1CN(c2cccc(C(F)(F)F)n2)CC[C@@H]1c1cc(F)c(F)cc1F`, the IC50 was > 100 µM against Dipeptidyl peptidase 8, 5.3 µM at Dipeptidyl peptidase 2, 21 µM against Dipeptidyl peptidase 9 and 0.111 µM against Dipeptidyl peptidase 4.

Regarding `N[C@H]1CN(c2ncccn2)CC[C@@H]1c1cc(F)c(F)cc1F`, the IC50 against Dipeptidyl peptidase 8 came out at 33 µM; at Dipeptidyl peptidase 2, 54 µM; against Dipeptidyl peptidase 9 it was 58 µM; at Dipeptidyl peptidase 4, 0.09 µM.

On to `N[C@H]1CN(c2nccc3ccccc23)CC[C@@H]1c1cc(F)c(F)cc1F`, for which the 50% inhibitory concentration (IC50) against Dipeptidyl peptidase 8 is > 100 µM; against Dipeptidyl peptidase 2, 32 µM; on Dipeptidyl peptidase 9, > 100 µM; against Dipeptidyl peptidase 4 it was 3.7 µM.

At Dipeptidyl peptidase 2, `N[C@H]1CN(c2cnc3ccccc3n2)CC[C@@H]1c1cc(F)c(F)cc1F` had an IC50 of 27 µM.

As to `Cc1nnc2ccc(N3CC[C@H](c4cc(F)c(F)cc4F)[C@@H](N)C3)nn12.O=C(O)C(F)(F)F`, the bioavailability in [2] was determined as 100%. In addition, the IC50 is > 100 µM against Dipeptidyl peptidase 8; 74 µM against Dipeptidyl peptidase 2; > 100 µM against Dipeptidyl peptidase 9; 2 µM in data set [1]; 0.006 µM against Dipeptidyl peptidase 4. Besides, the clearance in data set [3] came out at 12 mL/min/kg. In addition, the half-life in data set [4] is 4.7 h.

Turning to `N[C@H]1CN(c2ncccc2C(F)(F)F)CC[C@@H]1c1cc(F)c(F)cc1F`, the 50% inhibitory concentration (IC50) on Dipeptidyl peptidase 8 and at Dipeptidyl peptidase 9 was > 100 µM throughout.

In the case of `N[C@H]1CN(c2cnc3nccnc3n2)CC[C@@H]1c1cc(F)c(F)cc1F.O=C(O)C(F)(F)F`, in data set [2], the bioavailability was 45%. Further, the concentration for half-maximal inhibition (IC50) against Dipeptidyl peptidase 8 was 54 µM; against Dipeptidyl peptidase 2, 93 µM; on Dipeptidyl peptidase 9 it was > 100 µM; against Cytochrome P450 2D6, 11.6 µM; in data set [1] it was 4.1 µM; at Dipeptidyl peptidase 4, 0.013 µM. Besides, the clearance in data set [3] came to 62 mL/min/kg. Besides, the half-life in [4] is 1.4 h.

Take `N[C@H]1CN(c2ccncc2)CC[C@@H]1c1cc(F)c(F)cc1F`: the IC50 was 43 µM on Dipeptidyl peptidase 8, 46 µM against Dipeptidyl peptidase 2, 35 µM on Dipeptidyl peptidase 9 and 0.125 µM against Dipeptidyl peptidase 4.

With `N[C@H]1CN(c2ccc3nncn3n2)CC[C@@H]1c1cc(F)c(F)cc1F`, the IC50 was > 100 µM at Dipeptidyl peptidase 8, > 100 µM on Dipeptidyl peptidase 2, > 100 µM on Dipeptidyl peptidase 9 and 0.031 µM on Dipeptidyl peptidase 4.

Take `N[C@H]1CN(c2ccc3nnc(-c4ccc(F)cc4)n3n2)CC[C@@H]1c1cc(F)c(F)cc1F`: the IC50 against Dipeptidyl peptidase 2 was 15 µM.

For `N[C@H]1CN(c2cccnn2)CC[C@@H]1c1cc(F)c(F)cc1F`, the IC50 was 40 µM against Dipeptidyl peptidase 8, > 100 µM on Dipeptidyl peptidase 2, 44 µM against Dipeptidyl peptidase 9 and 0.063 µM on Dipeptidyl peptidase 4.

As for `N[C@H]1CN(c2ccc3ccccc3n2)CC[C@@H]1c1cc(F)c(F)cc1F`, the IC50 against Dipeptidyl peptidase 8 was found to be 10 µM; against Dipeptidyl peptidase 2, 21 µM; against Dipeptidyl peptidase 9, 13 µM; against Dipeptidyl peptidase 4 it was 0.054 µM.

Turning to `Cc1cc(=O)n2nc(N3CC[C@H](c4cc(F)c(F)cc4F)[C@@H](N)C3)ccc2n1.O=C(O)C(F)(F)F`, the bioavailability in data set [2] was found to be 74%. The IC50 against Dipeptidyl peptidase 8 is > 100 µM; in data set [5] it was 33.2 µM; at Dipeptidyl peptidase 2, > 100 µM; on Dipeptidyl peptidase 9, > 100 µM; on Cytochrome P450 2D6, 16.2 µM; in [1], 18.5 µM. For the same molecule, the IC50 at Dipeptidyl peptidase 4 was determined as 0.008 µM. The clearance in [3] is 18 mL/min/kg. In addition, the half-life in [4] is 1.4 h.

As to `N[C@H]1CN(c2ccc3nccnc3n2)CC[C@@H]1c1cc(F)c(F)cc1F`, the concentration for half-maximal inhibition (IC50) came out at 25 µM on Dipeptidyl peptidase 8, 35 µM on Dipeptidyl peptidase 2, 50 µM at Dipeptidyl peptidase 9 and 0.007 µM against Dipeptidyl peptidase 4.

As to `N[C@H]1CN(c2ccc3nc(=O)ccn3n2)CC[C@@H]1c1cc(F)c(F)cc1F.O=C(O)C(F)(F)F`, the bioavailability in [2] was 12%. In addition, the 50% inhibitory concentration (IC50) was > 100 µM at Dipeptidyl peptidase 8; 100 µM in data set [5]; > 100 µM on Dipeptidyl peptidase 2; 19 µM at Dipeptidyl peptidase 9; 55.4 µM at Cytochrome P450 2D6; 84.6 µM in data set [1]. The same molecule came in with a concentration for half-maximal inhibition (IC50) on Dipeptidyl peptidase 4 of 0.0012 µM. Also, the clearance in data set [3] is 35 mL/min/kg. The same molecule had a half-life in [4] of 1.6 h.

`N[C@H]1CN(c2cnccn2)CC[C@@H]1c1cc(F)c(F)cc1F`: the half-maximal inhibitory concentration (IC50) against Dipeptidyl peptidase 8 came to 76 µM; against Dipeptidyl peptidase 2, 33 µM; at Dipeptidyl peptidase 9, 40 µM; on Dipeptidyl peptidase 4, 0.082 µM.

As to `N[C@H]1CN(c2ccc3nnc(C(F)(F)F)n3n2)CC[C@@H]1c1cc(F)c(F)cc1F`, the IC50 is > 100 µM at Dipeptidyl peptidase 8, 96 µM on Dipeptidyl peptidase 2, 90 µM on Dipeptidyl peptidase 9 and 0.009 µM against Dipeptidyl peptidase 4.

For the molecule `Cn1c(C2CC2)nc2ccc(N3CC[C@H](c4cc(F)c(F)cc4F)[C@@H](N)C3)nc21`, the IC50 against Dipeptidyl peptidase 8 is > 100 µM; on Dipeptidyl peptidase 2 it was 41 µM; against Dipeptidyl peptidase 9 it was 57 µM; against Dipeptidyl peptidase 4, 0.002 µM.

For the molecule `N[C@H]1CN(c2cccnc2)CC[C@@H]1c1cc(F)c(F)cc1F`, the IC50 was determined as 54 µM on Dipeptidyl peptidase 8, 82 µM at Dipeptidyl peptidase 2, 36 µM against Dipeptidyl peptidase 9 and 0.144 µM against Dipeptidyl peptidase 4.

Regarding `N[C@H]1CN(c2ccc3ncnc(C4CC4)c3n2)CC[C@@H]1c1cc(F)c(F)cc1F`, the concentration for half-maximal inhibition (IC50) was found to be 28 µM on Dipeptidyl peptidase 8, 9.9 µM at Dipeptidyl peptidase 2, 32 µM on Dipeptidyl peptidase 9 and 0.008 µM at Dipeptidyl peptidase 4.

For the molecule `N[C@H]1CN(c2ccccc2)CC[C@@H]1c1cc(F)c(F)cc1F`, the IC50 is 33 µM against Dipeptidyl peptidase 8, 5.5 µM against Dipeptidyl peptidase 2, 39 µM on Dipeptidyl peptidase 9 and 0.21 µM at Dipeptidyl peptidase 4.

On to `CCc1nnc2ccc(N3CC[C@H](c4cc(F)c(F)cc4F)[C@@H](N)C3)nn12`, for which the concentration for half-maximal inhibition (IC50) on Dipeptidyl peptidase 2 was 90 µM.

In turn, `Cn1nc2ccc(N3CC[C@H](c4cc(F)c(F)cc4F)[C@@H](N)C3)nn2c1=O` gave a half-inhibitory concentration (IC50) at Dipeptidyl peptidase 2 of 57 µM.

Take `N#Cc1ccc(N2CC[C@H](c3cc(F)c(F)cc3F)[C@@H](N)C2)nc1`: the 50% inhibitory concentration (IC50) on Dipeptidyl peptidase 8 was found to be 5.8 µM; on Dipeptidyl peptidase 2, 40 µM; at Dipeptidyl peptidase 9 it was 9.6 µM; at Dipeptidyl peptidase 4, 0.014 µM.

On to `N[C@H]1CN(c2ccc3nc(C(F)(F)F)nn3n2)CC[C@@H]1c1cc(F)c(F)cc1F`, for which the 50% inhibitory concentration (IC50) was > 100 µM at Dipeptidyl peptidase 8; 8.1 µM in data set [5]; > 100 µM on Dipeptidyl peptidase 2; > 100 µM against Dipeptidyl peptidase 9; 0.1 µM on Cytochrome P450 2D6; 1 µM in data set [1]. Also, the half-maximal inhibitory concentration (IC50) at Dipeptidyl peptidase 4 was found to be 0.005 µM.

`N[C@H]1CN(c2ccc3nc(C(F)(F)F)cn3n2)CC[C@@H]1c1cc(F)c(F)cc1F`: the IC50 against Dipeptidyl peptidase 8 came to 49 µM; on Dipeptidyl peptidase 2, 64 µM; on Dipeptidyl peptidase 9 it was 75 µM; at Dipeptidyl peptidase 4 it was 0.022 µM.

Regarding `N[C@H]1CN(c2cnc3cncnc3n2)CC[C@@H]1c1cc(F)c(F)cc1F`, half-maximal inhibition against Dipeptidyl peptidase 2 (IC50) was put at 87 µM.
